The text below walks through data of US20100048545A1, “Compounds and Compositions for Use in the Prevention and Treatment of Disorders of Fat Metabolism and Obesity” (INNODIA INC., priority 2006, published 2010).

For data set [1], the system named is Diet Induced Obesity (DIO)-Mice. Format: in vivo. The procedure:
A total of 40 animals were used in the study. The animals were distributed into 5 groups (4 treated, 1 control group, all on high fat diet). Each group was composed of 8 animals.
4-OH was aliquoted and kept at 4° C. […] Mice from groups 4 and 5 were treated twice daily with 50 and 100 mg/kg of compound 65a. All groups were treated by oral gavage. Treatment commenced on Day 0 and ended on Day 7 (FIG. 37A). Body weights were measured daily.

For data set [2], the system named is C57BL/6 mice fed a high fat diet. As to the kind of experiment: Analogs and isomers of 4-hydroxyisoleucine on body weight gain in C57BL/6 mice fed a high fat diet, 3 days. The data set is classed as in vivo. To be noted: for efficacy relative to compound 14a: 100 mg/kg twice daily; for body weight gain induced by the high fat diet: 100 mg/kg twice daily oral gavage. On the procedure: C57BL/6 mice were received at 6-7 weeks of age and fed a standard commercial chow for 1 week (acclimation period). The animals were randomized based on their body weight values, into control and treatment groups (n=6). Then, animals were shifted to a high fat diet (60% of calories from fat) and treated twice daily by oral gavage with 4-hydroxyisoleucine (4-OH, compound 14a) or different analogs and isomers of 4-OH at the dose of 100 mg per kg of body weight for 3 days. The control group (Control HFD) received vehicle (water) alone and a group was kept under standard chow (Control Lean). Body weight of the mice was recorded daily. Two different experiments were run and the effect on body weight gain of selected analogs and isomers according to the invention is presented in FIG. 30A (Experiment 1) and FIG. 30B (Experiment 2).

For the next data set, the system named is 3T3-L1 pre-adipocytes. As to the kind of experiment: Lipid accumulation in 3T3-L1 adipocytes (Oil red O, OD 490 nm). The data set is classed as cell-based. To be noted: 7 days in differentiation medium, compared to controls. From the text: The objective of the study was to evaluate if the compounds of the present invention, and more particularly analogs of 4-Hydroxyisoleucine, can decrease the accumulation of lipids in pre-adipocytes induced to differentiate into functional adipocytes. […] Treating the fibroblasts with a differentiation medium containing insulin, dexamethasone and […] (IBMX) in the presence of serum induces these cells to become terminally differentiated adipocytes. These cells convert to spherical shape and accumulate lipid droplets.
3T3-L1 were cultured in presence of DMEM and 10% FBS for a week in 6-well plates. The medium was than changed to induce differentiation of cells into mature adipocytes. The medium consisted of DMEM, 10% FBS, 0.5 mM IBMX, 0.01 mg/ml insulin and 0.1 μM dexamethasone, with or without compounds of the present invention. The cells were cultured for 7 days and then stained with Oil red 0, a dye which specifically stain lipids. The fat content of treated and untreated cells was quantified by measuring the optical density (OD, 490 nm) with a spectrophotometer.

The subject of the next data set is DIO-mice. The source says: The objective of this study was to evaluate the effect of chronic administration of 4-hydroxyisoleucine (4-OH, compound 14a) and Rosiglitazone, administered alone or in combination, on food consumption and body weight gain of DIO-mice. Both parameters were monitored for 1 week prior to the commencement of treatment, then for the 28 days of treatment and for an additional 7 days post-treatment.
A total of 72 animals were used in the study. The animals were distributed into 6 groups (5 treated, 1 control group, all on high fat diet). Each group was composed of 12 animals. The mice were randomized according to body weight and basal glycemia values following a 5±0.5 hour fasting period.
For the four weeks of treatment, the test articles were dissolved in reverse osmosis water. 4-Hydroxyisoleucine was aliquoted and kept at 4° C. (administration to groups 2, 3, and 6), while Rosiglitazone was freshly prepared daily and kept at 4° C. between the AM and PM administration to groups 4, 5, and 6. Control animals received reverse osmosis water twice daily (group 1). Mice from groups 2 and 3 were treated twice daily with 4-OH at 50 and 100 mg/kg, respectively. Animals from groups 4 and 5 received 1.5 and 5 mg/kg of Rosiglitazone, respectively. […] All groups were treated by oral gavage. Treatment commenced on Day 0 and ended on Day 28 (FIGS. 18A and 18C.
Food consumption was measured and averaged on a weekly basis beginning one week before the start of treatment as shown in FIGS. 18B and 18D as week −1. Similarly, food consumption was monitored for one week after treatment was stopped and is shown as week 5 in FIGS. 18B and 18D, In FIG. 18B, the food consumption over time for various treatment groups is illustrated by the bar graph.

A further data set relates to obese mice. Description: Compound 22 and 4-hydroxyisoleucine on weight gain of obese mice, 21 days. Format: in vivo, C57BL/6 mice. The procedure: The objective of the following study was to evaluate the effect of the lactone form of 4-hydroxyisoleucine (compound 22) on the weight gain of obese mice. 40 C57BL/6 mice were fed a high fat diet (60% of calories from fat) for 6 weeks in order to induce obesity. Animals were than randomized to 5 study groups of 8 mice each according to their body weight values. Thereafter, the animals were treated orally twice daily with either the water vehicle, 50 mg/kg of compound 22, 100 mg/kg of compound 22, 50 mg/kg of 4-hydroxyisoleucine or 100 mg/kg of 4-hydroxyisoleucine. The treatment lasted 21 days and body weight of mice were determined daily from day 1 to day 21 of the study.

In data set [3] the test system is Diet-Induced Obesity (DIO) mouse model. Description: Compound 13e on body weight gain in the Diet-Induced Obesity (DIO) mouse model, 21 days. Format: in vivo, C57BL/6 mice. On the procedure:
The objective of this study was to determine the effect of one analog according to the invention, namely Compound 13e, on body weight gain in the Diet-Induced Obesity (DIO) mouse model.
C57BL/6 mice were received at 7-8 weeks of age and fed a high fat diet (60% of calories from fat) for 8 weeks. Fasted glycemia and body weight values were used to randomize the mice into control and treatment groups (n=8). The average basal glycemia was between 213 and 215 mg/dL for all groups. The animals were treated twice daily by oral gavage with Compound 13e (25 or 50 mg per kg of body weight), and the control group received vehicle (200 mM bicarbonate buffer/0.1% Tween-20™, pH=9) alone. The animals were treated for 21 days. Body weight of the mice was measured on a frequent basis during the treatment. At the end of the study, the epididymal fat pads were isolated and weighed. Data are expressed as mean±SEM of body weight and mean±SEM of fat pad weight.

Entries after “also recorded” stand apart in the source; their conditions may differ. Structures can show the parent of a compound that is named as a salt.

`CC1(O)CC(C(=O)O)NCC1O` (stereo not shown) [Compound 65a, 4-methyl-4,5-dihydroxypipecolic acid]: in data set [1] (50 and 100 mg/kg twice daily oral gavage, one week), the tolerability of treatment entry is reported as “well tolerated”. Moreover, the weight gain result in data set [1] (50 and 100 mg/kg twice daily, first week of treatment) is reported as “moderation of weight gain was observed”. The food consumption result in data set [1] (first week of treatment) was “slight decrease in food consumption”. Further, in data set [2], the “efficacy relative to compound 14a” value is on record as “greater efficacy than the SRS isomer of 4-OH” and the “body weight gain induced by the high fat diet” value (“body weight gain induced” below) is “reduced body weight gain induced by the high fat diet”.
Consider `CC(C)(C)C(O)CC(N)C(=O)O` (stereo not shown) [Compound 62, 2-amino-4-hydroxy-5,5-dimethyl-hexanoic acid], for which the lipid accumulation entry in the data set on 3T3-L1 pre-adipocytes is recorded as “dose-dependently decreased the lipid accumulation; also recorded: decrease of accumulation of lipids”. In data set [2], the “efficacy relative to compound 14a” value is listed as “greater efficacy than the SRS isomer of 4-OH” and the “body weight gain induced” value is on record as “reduced body weight gain induced by the high fat diet”.
As for `C[C@H]([C@@H](C)O)[C@@H](N)C(=O)O` [Compound 14aa, (2R,3S,4R)-4-Hydroxyisoleucine], in data set [2], the “body weight gain induced” value is “reduced body weight gain induced by the high fat diet”.
Regarding `CN(CCOc1ccc(CC2SC(=O)NC2=O)cc1)c1ccccn1` (stereo not shown) [Rosiglitazone, reference compound], in the data set with DIO-mice (Rosiglitazone 1.5 mg/kg alone), the food consumption entry is reported as “increase in food consumption”. The weight entry in the data set with DIO-mice (Rosiglitazone alone, relative to the other groups) is given as “significant increase in weight relative to the other groups”.
Consider `COC(=O)[C@H]1C[C@@H](O)CN1` [Compound 202], for which the “body weight gain induced” value in data set [2] is recorded as “reduced body weight gain induced by the high fat diet”.
As to `CC1C(O)CN[C@@H]1C(=O)O` (stereo partly shown) [Compound 22], in the data set with obese mice (100 mg/kg orally twice daily, 21 days, vs water control, p<0.01), the body weight entry is recorded as “significant reduction of body weight compared to the water control group”. Moreover, in the data set on obese mice (100 mg/kg, end of treatment, p<0.01), the “white fat mass (epididymal fat)” value is “loss of the white fat mass (epididymal fat)”. Also, the “weight loss relative to 4-hydroxyisoleucine” value in the data set on obese mice (same dose level of 100 mg/kg, p<0.05) is “significantly greater than the weight loss caused by 4-hydroxyisoleucine”.
`CC(=O)N[C@@H]1C(=O)O[C@@H](C)[C@@H]1C` [Compound 104]: the “body weight gain induced” value in data set [2] is “reduced body weight gain induced by the high fat diet”.
As for `N[C@H](C(=O)O)[C@@H]1CCCC[C@H]1O` [Compound 13e, (S)-2-amino-2-((1S,2R)-2-hydroxycyclohexyl)acetic acid], in data set [3] (25 or 50 mg/kg twice daily), the “epididymal fat pad weight” value is on record as “reduction of epididymal fat pad weight”. The “body weight gain (delta of body weight from Day 0)” value in data set [3] (25 or 50 mg/kg twice daily oral gavage) is “reduction of body weight; also recorded: reduction in body weight gain compared to vehicle treated mice and this effect was dose-dependent”.
Regarding `COC(=O)[C@@H]1C[C@H](O)CN1` [Compound 76, cis-4-hydroxyproline methyl ester HCl salt], the lipid accumulation entry in the data set on 3T3-L1 pre-adipocytes (HCl salt) is “dose-dependently decreased the lipid accumulation; also recorded: decrease of accumulation of lipids”. Besides, the “body weight gain induced” value in data set [2] is “reduced body weight gain induced by the high fat diet”.
For `O=C(O)[C@@H]1C[C@H](O)CN1` [Compound 75, cis-4-hydroxyproline], in the data set with 3T3-L1 pre-adipocytes, the lipid accumulation result is “dose-dependently decreased the lipid accumulation; also recorded: decrease of accumulation of lipids”. In addition, the “body weight gain induced” value in data set [2] is “reduced body weight gain induced by the high fat diet”.
